Source: patent publication US20260138976A1 (Hoffmann-La Roche Inc., priority 2022, published 2026)

How the values were obtained:
DGK α kinase = target: T1, DGK α kinase (Homo sapiens, UniProt P23743); test: DGKalpha kinase ADP Glo assay run by Reaction Biology Corp.; format: biochemical; conditions: 2 nM kinase, 50 µM ATP, 500 μM DLG, 10-dose duplicate
T1 construct: purchased Reaction Biology Corp. (contract assay service)
Protocol: DGK α and ζ kinases use ATP to phosphorylate the substrate 1,2-dilauroyl-sn-glycerol (DLG). ATP is converted to ADP as a result of this enzymatic reaction.
After the kinase reaction, an ATP-depletion reagent is added to terminate the kinase reaction and deplete any remaining ATP, leaving only ADP. Second, a detection reagent is added to simultaneously convert ADP to ATP and allow the newly synthesized ATP to be converted to light using a coupled luciferase/luciferin reaction.
DGK α and ζ kinase ADP Glo assays were ran by Reaction Biology Corp., 1 Great Valley Parkway, Suite 2, Malvern, 19355, PA, USA. Information provided by the service provider are the following: DGK α and ζ kinases were used at 2 nM final concentration. Reactions were carried out at 50 µM ATP. 500 μM of the substrate DLG (Dilauroyl-sn-glycerol) was used.

primary human T-cells = test: IL2 secretion measurements (24 h, CD3-stimulated T-cells, PBS counter screen); format: cell-based; conditions: for Emax IL2 (% activation): CD3 condition, normalised to DMSO (neutral) and 20 μM reference compound A1 = 100%; for EC50: Homo sapiens, T-cell, CD3-stimulated primary human T-cells, IL2 secretion, fitted sigmoidal curve, read-out: Tcell IL2 CD3 EC50
Outline: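 IL-2 secretion was measured by ProQuantum or ELISA after 24 h culture of expanded human T-cells with compound, on CD3-antibody-coated plates or PBS counter-screen plates. Dosing used 5–6 points from a 20 or 10 μM final top at 3.333-fold steps in 0.2% DMSO. EC50/Emax were scaled between DMSO and 20 μM reference A1.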

T1 sequence (P23743 whole entry): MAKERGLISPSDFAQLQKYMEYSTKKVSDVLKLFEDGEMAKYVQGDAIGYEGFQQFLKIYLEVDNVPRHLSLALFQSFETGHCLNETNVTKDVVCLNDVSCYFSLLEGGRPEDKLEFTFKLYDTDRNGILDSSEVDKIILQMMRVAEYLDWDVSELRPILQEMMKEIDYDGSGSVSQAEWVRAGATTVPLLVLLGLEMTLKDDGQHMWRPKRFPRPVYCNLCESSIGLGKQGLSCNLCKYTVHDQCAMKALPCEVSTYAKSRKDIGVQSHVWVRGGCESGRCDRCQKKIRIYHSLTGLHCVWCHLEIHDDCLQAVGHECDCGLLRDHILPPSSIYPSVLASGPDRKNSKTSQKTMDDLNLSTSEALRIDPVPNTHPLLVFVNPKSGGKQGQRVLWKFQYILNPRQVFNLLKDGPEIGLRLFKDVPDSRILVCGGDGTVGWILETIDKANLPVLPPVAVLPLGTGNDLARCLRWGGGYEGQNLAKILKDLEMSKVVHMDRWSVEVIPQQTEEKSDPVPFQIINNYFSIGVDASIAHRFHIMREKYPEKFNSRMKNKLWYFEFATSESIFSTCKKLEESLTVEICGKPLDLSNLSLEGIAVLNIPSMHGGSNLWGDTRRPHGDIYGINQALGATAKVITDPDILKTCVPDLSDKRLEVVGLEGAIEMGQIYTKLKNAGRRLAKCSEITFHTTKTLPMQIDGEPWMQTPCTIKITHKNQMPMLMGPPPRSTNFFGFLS

**Q.** What does the source list for CC(N)(c1nnc(-c2ccc3c(c2)N(Cc2ccc(-c4noc(C(F)(F)F)n4)cc2)C(=O)[C@@H](N)CS3(=O)=O)o1)C(F)(F)F (stereo partly drawn) [Example 32, (3R)-3-amino-7-[5-(1-amino-2,2,2-trifluoro-1-methyl-ethyl)-1,3,4-oxadiazol-2-yl]-1,1-dioxo-5-[[4-[5-(trifluoromethyl)-1,2,4-oxadiazol-3-yl]phenyl]methyl]-2,3-dihydro-1λ^6,5-benzothiazepin-4-one]?
**A.** IC50 (DGK α kinase): 173 nM; Emax IL2 (% activation) (primary human T-cells): 321 % activation; EC50 (primary human T-cells): 1920 nM

**Q.** With CC(O)(c1nnc(-c2ccc3c(c2)N(Cc2ccc(-c4noc(C(F)(F)F)n4)cc2)C(=O)[C@@H](N)CS3(=O)=O)o1)C(F)(F)F (stereo partly drawn) [Example 96, (3R)-3-amino-1,1-dioxo-7-[5-(2,2,2-trifluoro-1-hydroxy-1-methyl-ethyl)-1,3,4-oxadiazol-2-yl]-5-[[4-[5-(trifluoromethyl)-1,2,4-oxadiazol-3-yl]phenyl]methyl]-2,3-dihydro-1λ^6,5-benzothiazepin-4-one] as the compound, how does the IC50 (DGK α kinase) read?
**A.** The IC50 was 44.7 nM.

**Q.** What about the “Emax IL2 (% activation)” value (primary human T-cells) of the same compound?
**A.** Its value is 232 % activation.

**Q.** What about the EC50 (primary human T-cells) of the same compound?
**A.** Its EC50 is 1360 nM.

**Q.** N[C@H]1CS(=O)(=O)c2ccc(-c3nnc(C4(N)CCCCC4)o3)cc2N(Cc2ccc(-c3noc(C(F)(F)F)n3)cc2)C1=O [Example 39, (3R)-3-amino-7-[5-(1-aminocyclohexyl)-1,3,4-oxadiazol-2-yl]-1,1-dioxo-5-[[4-[5-(trifluoromethyl)-1,2,4-oxadiazol-3-yl]phenyl]methyl]-2,3-dihydro-1λ^6,5-benzothiazepin-4-one] was tested. Which IC50 (DGK α kinase) did it give?
**A.** The IC50 was 94.6 nM.

**Q.** And the “Emax IL2 (% activation)” value (primary human T-cells)?
**A.** Its value is 143 % activation.

**Q.** And the EC50 (primary human T-cells)?
**A.** The EC50 was 622 nM.

**Q.** Which results are given for N[C@H]1CS(=O)(=O)c2ccc(-c3nnc(C4(C5CC5)CCCO4)o3)cc2N(Cc2ccc(-c3noc(C(F)(F)F)n3)cc2)C1=O (stereo partly drawn) [Example 36, (3R)-3-amino-7-[5-(2-cyclopropyl-tetrahydrofuran-2-yl)-1,3,4-oxadiazol-2-yl]-1,1-dioxo-5-[[4-[5-(trifluoromethyl)-1,2,4-oxadiazol-3-yl]phenyl]methyl]-2,3-dihydro-1λ^6,5-benzothiazepin-4-one]?
**A.** IC50 (DGK α kinase): 58.5 nM; Emax IL2 (% activation) (primary human T-cells): 223 % activation; EC50 (primary human T-cells): 616 nM

**Q.** Which IC50 (DGK α kinase) does the source give for CC(C)(C)c1nnc(-c2ccc3c(c2)N(Cc2ccc(-c4nnc(C(F)(F)F)o4)cc2)C(=O)[C@@H](N)CS3(=O)=O)o1 [Example 24, (3R)-3-amino-7-(5-tert-butyl-1,3,4-oxadiazol-2-yl)-1,1-dioxo-5-[[4-[5-(trifluoromethyl)-1,3,4-oxadiazol-2-yl]phenyl]methyl]-2,3-dihydro-1λ^6,5-benzothiazepin-4-one] here?
**A.** Its IC50 is 282 nM.

**Q.** And the “Emax IL2 (% activation)” value (primary human T-cells)?
**A.** The value was 131 % activation.

**Q.** And the EC50 (primary human T-cells)?
**A.** Its EC50 is 1060 nM.

**Q.** Which IC50 (DGK α kinase) does the source give for CC(C)(C#N)c1nnc(-c2cc3c(cc2F)S(=O)(=O)C[C@H](N)C(=O)N3Cc2ccc(-c3ccc(C(F)(F)F)cn3)cc2)o1 [Example 88, 2-[5-[(3R)-3-amino-8-fluoro-1,1,4-trioxo-5-[[4-[5-(trifluoromethyl)-2-pyridyl]phenyl]methyl]-2,3-dihydro-1λ^6,5-benzothiazepin-7-yl]-1,3,4-oxadiazol-2-yl]-2-methyl-propanenitrile] here?
**A.** Its IC50 is 11.1 nM.

**Q.** What about the “Emax IL2 (% activation)” value (primary human T-cells) of the same compound?
**A.** The value was 121 % activation.

**Q.** What about the EC50 (primary human T-cells) of the same compound?
**A.** The EC50 was 264 nM.

**Q.** How did the “Emax IL2 (% activation)” value (primary human T-cells) turn out when N[C@H]1CS(=O)(=O)c2cc(F)c(-c3noc(C4(CO)CCCO4)n3)cc2N(Cc2ccc(-c3noc(C(F)(F)F)n3)cc2)C1=O (stereo partly drawn) [Example 18, (3R)-3-amino-8-fluoro-7-[5-[2-(hydroxymethyl)tetrahydrofuran-2-yl]-1,2,4-oxadiazol-3-yl]-1,1-dioxo-5-[[4-[5-(trifluoromethyl)-1,2,4-oxadiazol-3-yl]phenyl]methyl]-2,3-dihydro-1λ^6,5-benzothiazepin-4-one] was run?
**A.** The value was 529 % activation.

**Q.** What about the EC50 (primary human T-cells) of the same compound?
**A.** Its EC50 is 849 nM.

**Q.** For N[C@H]1CS(=O)(=O)c2cc(F)c(-c3noc(N4CCOC5(CC5)C4)n3)cc2N(Cc2ccc(-c3noc(C(F)(F)F)n3)nc2)C1=O [Example 14, (3R)-3-amino-8-fluoro-7-[5-(4-oxa-7-azaspiro[2.5]octan-7-yl)-1,2,4-oxadiazol-3-yl]-1,1-dioxo-5-[[6-[5-(trifluoromethyl)-1,2,4-oxadiazol-3-yl]-3-pyridyl]methyl]-2,3-dihydro-1λ^6,5-benzothiazepin-4-one], which “Emax IL2 (% activation)” value (primary human T-cells) is on record?
**A.** Its value is 93 % activation.

**Q.** And the EC50 (primary human T-cells)?
**A.** Its EC50 is 3990 nM.
